The values below come from ChEMBL document CHEMBL1201862, “PubChem BioAssay data set” (2004).

Molecules are shown by their SMILES.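 Five compound concentrations were applied to cells in 96-well plates for 48 hours; endpoints were derived by simple linear interpolation of the resulting dose-response curve. Here, GI50 denotes the concentration required for 50% inhibition of growth.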 Active and inactive are the calls of the source. Rule as the data show it: active = GI50 up to about 1.1 µM and inactive = higher.

Experiment in all cases: DTP human tumour cell line panel, 48 h
Experiment [1] concerns UO-31.
Experiment [2] concerns KM12.
The test system of experiment [3] is SK-MEL-2.
Experiment [4] relates to MDA-N.
Experiment [5] deals with OVCAR-4.
The test system of experiment [6] is UACC-62.
Experiment [7] concerns OVCAR-3.
Experiment [8] deals with COLO 205.
The test system of experiment [9] is HCC 2998.
Experiment [10] relates to NCI-H23.
The subject of experiment [11] is T47D.
The test system of experiment [12] is OVCAR-8.
In experiment [13] the test system is LOX IMVI.
The subject of experiment [14] is NCI-H522.
The test system of experiment [15] is 786-0.
Experiment [16] has as its system NCI/ADR-RES.
The test system of experiment [17] is RPMI-8226.
Experiment [18] relates to SW-620.
For experiment [19], the system named is K562.
The subject of experiment [20] is RXF 393.

Regarding `CSc1nc(SC)c2c(CN=[N+]=[N-])c(Br)n(Cc3ccccc3)c2n1`, the GI50 (in general, the concentration giving 50% growth inhibition) is > 100 µM (inactive) in experiment [1]; > 100 µM (inactive) in [2]; > 100 µM (inactive) in experiment [3]; 99.3 µM (inactive) in experiment [4]; 76.7 µM (inactive) in experiment [5]; 47.3 µM (inactive) in experiment [6]. The GI50 is > 100 µM (inactive) in experiment [7]; > 100 µM (inactive) in experiment [8]; > 100 µM (inactive) in experiment [9]; > 100 µM (inactive) in experiment [10]; 11.7 µM (inactive) in experiment [11]; > 100 µM (inactive) in experiment [12]. For the same compound, the GI50 is 66.1 µM (inactive) in experiment [13]; > 100 µM (inactive) in experiment [14]; > 100 µM (inactive) in experiment [15]; > 100 µM (inactive) in experiment [16]; > 100 µM (inactive) in experiment [17]; > 100 µM (inactive) in experiment [18].
Regarding `CSCCC(NC(c1ccccc1)c1ccccc1)[PH](=O)O` (centres undefined), the GI50 in experiment [1] is > 100 µM (inactive); in experiment [2], > 100 µM (inactive); in [3] it was > 100 µM (inactive); in experiment [4] it was 10 µM (inactive); in experiment [5] it was > 100 µM (inactive); in experiment [6], > 100 µM (inactive). In addition, the GI50 in [7], in experiment [8], in experiment [10], in experiment [11], in experiment [12] and in experiment [13] was > 100 µM (inactive) each time. Moreover, the GI50 in experiment [14], in experiment [15], in experiment [16], in experiment [19], in [17] and in experiment [18] was > 100 µM (inactive) in each case.
Regarding `CN(C(=S)Cc1ccc(Cl)c(Cl)c1)C1CCCC[C@@H]1N1CCCC1` (some centres undefined), the GI50 in [1] was 19.6 µM (inactive); in experiment [2], 44.6 µM (inactive); in [3], 31.6 µM (inactive); in experiment [4] it was 17.8 µM (inactive); in experiment [5], 84.9 µM (inactive); in experiment [6], 17.5 µM (inactive). Moreover, the GI50 in [7] was 26.1 µM (inactive); in experiment [10], 44.2 µM (inactive); in [11], 38 µM (inactive); in [15] it was 21.9 µM (inactive); in experiment [16], 85.9 µM (inactive); in experiment [19], 61 µM (inactive). The GI50 in experiment [17] was 31.8 µM (inactive); in experiment [18], 20.1 µM (inactive).
Turning to `O=[N+]([O-])c1ccc(Cl)cc1-n1nc(-c2ccccc2)cc1-c1ccccc1`, the GI50 in experiment [1], in experiment [2], in experiment [3], in [4], in [5] and in experiment [6] was > 100 µM (inactive) in each case. Moreover, the GI50 in experiment [7] is > 100 µM (inactive); in [8], > 100 µM (inactive); in experiment [9], > 100 µM (inactive); in experiment [10], > 100 µM (inactive); in experiment [11] it was 22.3 µM (inactive); in experiment [12], > 100 µM (inactive). Moreover, the GI50 in experiment [14], in experiment [15], in experiment [16], in [19], in experiment [17] and in experiment [18] was > 100 µM (inactive) in each case.
Regarding `O=[N+]([O-])/C(C(Cl)=C(Cl)Cl)=C(\SCc1ccccc1)N1CCCCC1`, the GI50 in experiment [1] is 24.2 µM (inactive); in experiment [2] it was 28 µM (inactive); in [3], 21.5 µM (inactive); in experiment [4], 17.5 µM (inactive); in experiment [5] it was 15 µM (inactive); in experiment [6], 17.9 µM (inactive). Also, the GI50 in experiment [7] is 14.1 µM (inactive); in experiment [8] it was 16.4 µM (inactive); in experiment [9], 23.4 µM (inactive); in experiment [10], 18 µM (inactive); in experiment [11], 8.43 µM (inactive); in [20], 19.7 µM (inactive). The GI50 in experiment [12] is 20.6 µM (inactive); in experiment [13], 15.9 µM (inactive); in experiment [14], 14.7 µM (inactive); in [15], 15.9 µM (inactive); in experiment [19] it was 27.8 µM (inactive); in [17], 11.5 µM (inactive).
On to `Cc1ccc(S(=O)(=O)NC2C(=O)c3ccccc3C(=O)C2n2cnc3ccccc32)cc1` (centres undefined), for which the GI50 in experiment [2] was 9.4 µM (inactive); in experiment [3], 14.7 µM (inactive); in experiment [4] it was 19.4 µM (inactive); in [5], 2.19 µM (inactive); in experiment [6], 28.3 µM (inactive); in experiment [7], 4.3 µM (inactive). For the same compound, the GI50 in experiment [8] was 20 µM (inactive); in experiment [9], 0.906 µM (active); in experiment [10] it was 23.9 µM (inactive); in experiment [11], 25.2 µM (inactive); in [20] it was 24.9 µM (inactive); in experiment [12] it was 29.4 µM (inactive). The GI50 is 31.8 µM (inactive) in experiment [13]; 39.5 µM (inactive) in [15]; 22.1 µM (inactive) in [16]; 90.6 µM (inactive) in experiment [19]; 32.5 µM (inactive) in experiment [17]; 25.3 µM (inactive) in [18].
As to `Cc1c(NC(=O)CCCl)c(=O)oc2c(C)c3occc(=O)c3cc12`, the GI50 in [1] is 36.1 µM (inactive); in experiment [2], > 100 µM (inactive); in experiment [4] it was 47.9 µM (inactive); in [5] it was > 100 µM (inactive); in experiment [8] it was > 100 µM (inactive); in experiment [9] it was > 100 µM (inactive). In addition, the GI50 was 94.4 µM (inactive) in experiment [10]; 77.4 µM (inactive) in [11]; 33.5 µM (inactive) in experiment [20]; > 100 µM (inactive) in experiment [12]; > 100 µM (inactive) in experiment [15]; > 100 µM (inactive) in experiment [16]. The GI50 was 66.4 µM (inactive) in experiment [19], 81.7 µM (inactive) in experiment [17] and 87.7 µM (inactive) in experiment [18].
`CCOP(=O)(OCC)/C(=C/c1cccs1)CC(C)=O`: the GI50 in experiment [1], in experiment [2], in experiment [3], in experiment [4], in experiment [5] and in experiment [6] was > 100 µM (inactive) in each case. The GI50 in [7] was > 100 µM (inactive); in experiment [8] it was > 100 µM (inactive); in [9], > 100 µM (inactive); in [10] it was > 100 µM (inactive); in experiment [11], 73.8 µM (inactive); in experiment [20] it was > 100 µM (inactive). Also, the GI50 in experiment [12], in experiment [13], in [15], in [16], in experiment [19] and in experiment [18] was > 100 µM (inactive) in each case.
For the compound `Cc1ccc(CC2(OCCN(C)C)CCC(C(C)(C)C)CC2)cc1` (centres undefined), the GI50 in [1] was 5.33 µM (inactive); in [2], 2.86 µM (inactive); in [3] it was 2.11 µM (inactive); in experiment [4] it was 2.28 µM (inactive); in [5] it was 5.13 µM (inactive); in [6], 3.31 µM (inactive). Further, the GI50 in experiment [7] was 11.9 µM (inactive); in [8], 1.48 µM (inactive); in experiment [9], 1.9 µM (inactive); in [10], 11.4 µM (inactive); in experiment [11], 2.68 µM (inactive); in experiment [12] it was 9.4 µM (inactive). Moreover, the GI50 in experiment [13] was 1.63 µM (inactive); in experiment [14], 4.88 µM (inactive); in [15], 1.88 µM (inactive); in [16], 7.98 µM (inactive); in experiment [19], 1.87 µM (inactive); in [17], 2.21 µM (inactive). In experiment [18], the GI50 is 2.45 µM (inactive).
Regarding `Cc1c2cc[n+](C)cc2c(C)c2c1oc1ccccc12`, the GI50 in experiment [1] is 68.7 µM (inactive); in [2], 1.62 µM (inactive); in experiment [3], 4.13 µM (inactive); in experiment [4], 11 µM (inactive); in [5], 7.14 µM (inactive); in experiment [6], 5.62 µM (inactive). The GI50 in experiment [7] was 2.65 µM (inactive); in [8], 3.51 µM (inactive); in [9], 2.75 µM (inactive); in experiment [10], 2.24 µM (inactive); in experiment [20] it was 15.2 µM (inactive); in experiment [12] it was 1.67 µM (inactive). The GI50 in [13] is 11.4 µM (inactive); in experiment [14], 1.95 µM (inactive); in [15], 1.17 µM (inactive); in experiment [16] it was > 100 µM (inactive); in experiment [19] it was 6.38 µM (inactive); in experiment [17], 4.2 µM (inactive). The GI50 in experiment [18] is 3 µM (inactive).
In the case of `O=c1c(C(c2ccc(-c3ccccc3)cc2)c2c(O)oc3ccccc3c2=O)c(O)oc2ccccc12`, the GI50 is 17.7 µM (inactive) in experiment [1]; 19.6 µM (inactive) in experiment [2]; 22.5 µM (inactive) in [3]; 19.4 µM (inactive) in experiment [4]; 35.1 µM (inactive) in experiment [5]; 19.3 µM (inactive) in experiment [6]. The GI50 in [7] was 24.3 µM (inactive); in experiment [8], 34.6 µM (inactive); in experiment [9] it was 15.6 µM (inactive); in [10], 24.8 µM (inactive); in experiment [11] it was 40 µM (inactive); in [12], 17.2 µM (inactive). Also, the GI50 in [13] was 19.1 µM (inactive); in experiment [14] it was 24 µM (inactive); in experiment [15], 26.9 µM (inactive); in experiment [16] it was 21.6 µM (inactive); in experiment [19], 45.5 µM (inactive); in [17], 25.9 µM (inactive). Also, the GI50 in [18] is 16.4 µM (inactive).
